Experimental data as given in US8624034B2, “Fluoro-pyridinone derivatives useful as antibacterial agents” (Pfizer Inc., priority 2011, dated 2014).
Converted amounts (≈) assume the structure as drawn.

What was measured:
[1] = tested on: Escherichia coli EC-1: VOGEL, mouse virulent; test: MIC determination, EC-1; assay type: cell-based; details: Escherichia coli, read-out: EC-1 (MIC), Table 2, lower of duplicate values
How it was run: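 MIC against mouse-virulent E. coli EC-1 (VOGEL) was determined by CLSI M7-A8 broth dilution with 2-fold drug increments and overnight incubation. The MIC is the lowest concentration with no visible growth versus drug-free control. Tests were run in duplicate and the lower value reported if within 2-fold, with QC organisms and reference drugs in each run.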

[2] = tested on: Pseudomonas aeruginosa UI-18: wild-type (PA-7); test: MIC determination, PA-7; assay type: cell-based; details: Table 2, lower of duplicate values
Protocol: The in vitro antibacterial activity of compounds described in the Examples was evaluated by minimum inhibitory concentration (MIC) testing according to Clinical and Laboratory Standards Institute (CLSI). See: Clinical and Laboratory Standards Institute. Methods for Dilution Antimicrobial Susceptibility Tests for Bacteria that Grow Aerobically; Approved Standard-Eighth Edition. CLSI document M7-A8 [ISBN 1-56238-689-1]. Clinical and Laboratory Standards Institute, 940 West Valley Road, Suite 1400, Wayne, Pa. 19087-1898 USA, 2006; also Clinical and Laboratory Standards Institute. Performance Standards for Antimicrobial Susceptibility Testing; Twentieth Informational Supplement. CLSI document M100-S20 [ISBN 1-56238-716-2]. Clinical and Laboratory Standards Institute.
The MIC determination is a standard laboratory method for evaluating the antibacterial activity of a compound. The MIC represents the lowest drug concentration that inhibits visible growth of bacteria following overnight incubation. […] Typically, the drug concentration range is broken down into 2-fold increments (e.g. 0.06 μg/mL, 0.12 μg/mL. 0.25 μg/mL, 0.50 μg/mL, 1.0 μg/mL, etc.) and the various drug concentrations are all individually incubated overnight with approximately the same number of bacteria. The MIC is then determined by visually inspecting the drug effect at each concentration, and identifying the lowest drug concentration that has inhibited bacterial growth as compared to the drug free control. Typically, bacteria continue to grow at drug concentrations lower than the MIC and don't grow at concentrations at and above the MIC.
The MIC values described in Table 2 and 3 below were derived from assays wherein each test compound was evaluated in duplicate. In cases where the duplicate values varied by 0-2-fold, the lower of the two values was reported below. Generally speaking, if the duplicate values varied by more than 2-fold, the assay was considered non-valid and was repeated until the variation between duplicate runs was ≦2-fold. In line with the CLSI guidelines referred to above, both control organisms and reference compounds were utilized in each MIC assay to provide proper quality control. MIC values generated with these control organisms and reference compounds were required to fall within a defined range for the assay to be considered valid and be included herein. Those skilled in the art will recognize that MIC values can and do vary from experiment to experiment. Generally speaking, it should be recognized that MIC values often vary +/−2-fold from experiment to experiment. While a single MIC is reported for each compound and each microorganism, the reader should not conclude that each compound was only tested once. Several of the compounds were subjected to multiple tests. The data reported in Tables 2 and 3 is reflective of the compounds relative activity and different MICs may have been generated on these occasions in line with the guidelines described above.
The following bacterial strains were used in these MIC determinations:
1) Pseudomonas aeruginosa UI-18: Wild-type, labeled as PA-7 in Tables 2 and 3;

[3] = tested on: Acinetobacter baumannii/haemolyticus, multidrug-resistant clinical isolate (AB-3167); test: MIC determination, AB-3167; assay type: cell-based; details: Table 2, lower of duplicate values
How it was run: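 Broth dilution MIC per CLSI M7-A8, 2-fold drug series, overnight incubation, lowest concentration visibly inhibiting growth against drug-free control. Run in duplicate, lower value reported; duplicates differing >2-fold repeated; QC strains and reference compounds required in range.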

[4] = target: T1, Pseudomonas aeruginosa LpxC enzyme (Pseudomonas aeruginosa, UniProt P47205); test: IC50 assay, LpxC enzyme from P. aeruginosa (PA LpxC enzyme IC50); assay type: biochemical; details: Table 2; LpxC enzyme 0.1 nM, 25° C., 1 hour; read-out: PA:IC50
T1 construct: made in house; host or cells: E. coli
T1 sequence (P47205 1-303): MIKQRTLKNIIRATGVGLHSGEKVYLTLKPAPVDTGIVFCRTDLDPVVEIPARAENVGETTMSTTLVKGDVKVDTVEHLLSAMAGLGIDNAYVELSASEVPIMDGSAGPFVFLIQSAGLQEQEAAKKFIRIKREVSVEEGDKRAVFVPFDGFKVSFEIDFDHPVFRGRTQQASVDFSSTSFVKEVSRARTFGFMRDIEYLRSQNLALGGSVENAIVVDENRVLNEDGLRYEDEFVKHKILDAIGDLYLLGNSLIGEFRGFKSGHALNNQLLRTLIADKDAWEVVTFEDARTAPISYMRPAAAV
How it was run: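 The LpxC reaction ran 1 hour and was stopped with HCl. Substrate-to-product conversion was measured by RapidFire mass spectrometry, and IC50 values were calculated from percent conversion relative to a no-enzyme control.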

| Compound | MIC [1] | MIC [2] | MIC [3] | IC50 [4] |
| --- | --- | --- | --- | --- |
| [2H]C([2H])([2H])Oc1ccc(-c2cc(=O)n(CC[C@](C)(C(=O)NO)S(C)(=O)=O)cc2F)cc1 [Example 44, (2R)-4-[5-Fluoro-4-(4-trideuteromethoxyphenyl)-2-oxopyridin-1(2H)-yl]-N-hydroxy-2-methyl-2-(methylsulfonyl)butanamide] | 0.25 µg/mL (≈ 0.602 µM) | 0.25 µg/mL (≈ 0.602 µM) | > 64 µg/mL | 664 pM |
| C[C@@](CCn1cc(F)c(-c2ccc(F)c(F)c2)cc1=O)(C(=O)NO)S(C)(=O)=O [Example 6, (2R)-4-[4-(3,4-Difluorophenyl)-5-fluoro-2-oxopyridin-1(2H)-yl]-N-hydroxy-2-methyl-2-(methylsulfonyl)butanamide] | 1 µg/mL (≈ 2.39 µM) | 0.5 µg/mL (≈ 1.2 µM) | > 64 µg/mL | 833 pM |
| C[C@@](CCn1cc(F)c(-c2ccc(OC[C@H]3CC[C@H](O)CC3)cc2)cc1=O)(C(=O)NO)S(C)(=O)=O [Example 18, (2R)-4-[5-Fluoro-4-{4-[(trans-4-hydroxycyclohexyl)methoxy]phenyl}-2-oxopyridin-1(2H)-yl]-N-hydroxy-2-methyl-2-(methylsulfonyl)butanamide] | 0.125 µg/mL (≈ 0.245 µM) | 1 µg/mL (≈ 1.96 µM) | > 64 µg/mL | 463 pM |
| CCOc1ccc(-c2cc(=O)n(CC[C@](C)(C(=O)NO)S(C)(=O)=O)cc2F)cc1 [Example 10, (2R)-4-[4-(4-Ethoxyphenyl)-5-fluoro-2-oxopyridin-1(2H)-yl]-N-hydroxy-2-methyl-2-(methylsulfonyl)butanamide] | 0.25 µg/mL (≈ 0.586 µM) | 1 µg/mL (≈ 2.34 µM) | > 64 µg/mL | 823 pM |
| Cc1cc(-c2cc(=O)n(CC[C@](C)(C(=O)NO)S(C)(=O)=O)cc2F)ccc1F [Example 14, (2R)-4-[5-Fluoro-4-(4-fluoro-3-methylphenyl)-2-oxopyridin-1(2H)-yl]-N-hydroxy-2-methyl-2-(methylsulfonyl)butanamide] | 0.5 µg/mL (≈ 1.21 µM) | 0.5 µg/mL (≈ 1.21 µM) | > 64 µg/mL | 758 pM |
| COc1cccc(-c2cc(=O)n(CC[C@](C)(C(=O)NO)S(C)(=O)=O)cc2F)c1 [Example 25, (2R)-4-[5-Fluoro-4-(3-methoxyphenyl)-2-oxopyridin-1(2H)-yl]-N-hydroxy-2-methyl-2-(methylsulfonyl)butanamide] | 1 µg/mL (≈ 2.42 µM) | 2 µg/mL (≈ 4.85 µM) | > 64 µg/mL | 412 pM |
| C[C@@](CCn1cc(F)c(C#Cc2ccccc2)cc1=O)(C(=O)NO)S(C)(=O)=O [Example 48, (2R)-4-[5-Fluoro-2-oxo-4-(phenylethynyl)pyridin-1(2H)-yl]-N-hydroxy-2-methyl-2-(methylsulfonyl)butanamide] | 0.06 µg/mL (≈ 0.148 µM) | 0.5 µg/mL (≈ 1.23 µM) | > 64 µg/mL | 555 pM |
| C[C@@](CCn1cc(F)c(-c2ccc(OC(F)(F)F)cc2)cc1=O)(C(=O)NO)S(C)(=O)=O [Example 30, (2R)-4-{5-Fluoro-2-oxo-4-[4-(trifluoromethoxy)phenyl]pyridin-1(2H)-yl}-N-hydroxy-2-methyl-2-(methylsulfonyl)butanamide] | 0.25 µg/mL (≈ 0.536 µM) | 0.5 µg/mL (≈ 1.07 µM) | > 64 µg/mL | 106 pM |
| C[C@@](CCn1cc(F)c(-c2ccc3c(c2)OC(F)(F)O3)cc1=O)(C(=O)NO)S(C)(=O)=O [Example 47, (2R)-4-[4-(2,2-Difluoro-1,3-benzodioxol-5-yl)-5-fluoro-2-oxopyridin-1(2H)-yl]-N-hydroxy-2-methyl-2-(methylsulfonyl)butanamide] | 0.25 µg/mL (≈ 0.541 µM) | 0.5 µg/mL (≈ 1.08 µM) | > 64 µg/mL | – |
| Cc1cc(-c2cc(=O)n(CC[C@](C)(C(=O)NO)S(C)(=O)=O)cc2F)ccc1-n1nccn1 [Example 37, (2R)-4-{5-Fluoro-4-[3-methyl-4-(2H-1,2,3-triazol-2-yl)phenyl]-2-oxopyridin-1(2H)-yl}-N-hydroxy-2-methyl-2-(methylsulfonyl)butanamide] | 0.5 µg/mL (≈ 1.08 µM) | 1 µg/mL (≈ 2.16 µM) | > 64 µg/mL | – |
